Reference: patent publication US20250360164A1, “METHOD FOR REDUCING THE INCIDENCE OF PECTORAL MYOPATHY IN POULTRY FEED” (CAN TECHNOLOGIES, INC., priority 2017, published 2025)

Legend:
[1] = tested on: wooden breast; details: previous state-of-the-art, poster 450 P, 2015; cited from earlier work
[2] = nitrate dosage up to at least 400 mg/kg body weight, starter and grower phases
Procedure: The amount of one or more nitrates, one or more nitrites, or a mixture thereof fed to the poultry in the feed compositions and/or methods described herein can also be expressed in mg of nitrates and/or nitrites per kg body weight of the poultry. In some embodiments, the nitrate/nitrite amount in the feed composition is less than 500 mg/kg, less than 450 mg/kg, less than 400 mg/kg, or less than 300 mg/kg. In some embodiments, the nitrate/nitrate amount in the feed composition is in the range of 10 to 500 mg/kg, 10 to 400 mg/kg; 10 to 300 mg/kg; 25 to 400 mg/kg; 25 to 200 mg/kg; 50 to 400 mg/kg; 50 to 150 mg/kg; or 100 to 400 mg/kg.

| Structure (SMILES) | reduction of wooden breast [1] | effect on growth [2] | nitrate poisoning [2] |
| --- | --- | --- | --- |
| N=C(N)NCCC[C@H](N)C(=O)O [arginine] | inefficient in providing effective reduction | – | – |
| O=[N+]([O-])[O-].O=[N+]([O-])[O-].[Ca+2] [calcium nitrate] | – | does not negatively affect growth | does not cause nitrate poisoning |
